{"source": "patent US9901592B2", "about": "(priority 2008, dated 2018)", "key": {"S. pneumoniae [1]": {"tested_on": "S. pneumoniae", "assay": "microbe, parasite or virus in culture", "type": "cell-based"}, "M. catarrhalis": {"tested_on": "M. catarrhalis", "assay": "microbe, parasite or virus in culture", "type": "cell-based", "settings": "Moraxella catarrhalis"}, "M. hominis": {"tested_on": "M. hominis", "type": "cell-based", "settings": "M. hominis (13 isolates)"}, "pneumococci": {"tested_on": "pneumococci", "assay": "microbe, parasite or virus in culture", "type": "cell-based, S. pneumoniae", "settings": "Streptococcus pneumoniae"}, "S. pyogenes [2]": {"tested_on": "S. pyogenes", "assay": "microbe, parasite or virus in culture", "type": "cell-based", "settings": "for MIC: Streptococcus pyogenes"}, "S. pneumoniae [3]": {"tested_on": "S. pneumoniae", "type": "cell-based"}, "S. pyogenes [4]": {"tested_on": "S. pyogenes", "type": "cell-based"}, "M. fermentans": {"tested_on": "M. fermentans", "type": "cell-based", "settings": "M. fermentans (15 isolates)"}}, "note": "Where “and” joins values, the source holds several entries; their conditions need not be identical. Equal values may be shown once. Read-outs that look alike come from different tables or passages of the source.", "data": [{"smiles": "CCC[C@@H]1C[C@@H](C(=O)N[C@@H]([C@H]2O[C@H](SC)[C@H](O)[C@@H](O)[C@H]2O)[C@H](C)Cl)N(C)C1", "note": "[CLN, clindamycin]", "values": [{"measurement": "nonsusceptibility", "setting": "S. pneumoniae [1]", "value": 83.3, "unit": "%"}, {"measurement": "MIC90", "setting": "S. pneumoniae [1]; Streptococcus pneumoniae", "value": "> 16", "unit": "µg/mL"}, {"measurement": "MIC90", "setting": "M. catarrhalis", "value": 2, "unit": "µg/mL"}, {"measurement": "MIC Range", "setting": "M. hominis", "value": "≦0.008-0.031 μg/mL"}, {"measurement": "MIC50", "setting": "M. hominis; Metamycoplasma hominis, read-out: MIC50", "value": "≤ 0.008", "unit": "µg/mL"}, {"measurement": "MIC90", "setting": "M. hominis; Metamycoplasma hominis, read-out: MIC90", "value": 0.016, "unit": "µg/mL"}, {"measurement": "MIC50", "setting": "pneumococci; pneumococci, L4 mutations (27)", "value": 0.06, "unit": "µg/mL"}, {"measurement": "MIC90", "setting": "pneumococci; pneumococci, L4 mutations (27)", "value": 0.125, "unit": "µg/mL"}, {"measurement": "MIC", "setting": "pneumococci; read-out: MIC range, pneumococci, L4 mutations (27)", "value": "0.03 to 0.125", "unit": "µg/mL"}, {"measurement": "strains with resistant clones / strains tested", "setting": "S. pyogenes [2]; S. pyogenes", "value": "2/3 and 2/4"}, {"measurement": "MIC", "setting": "S. pyogenes [2]; read-out: Initial MIC, strain 237 Macrolide-R [LA mutation], parent", "value": 0.06, "unit": "µg/mL"}, {"measurement": "MIC", "setting": "S. pyogenes [2]; read-out: Initial MIC, strain 2011 Macrolide-R [mef(A)], parent", "value": 0.06, "unit": "µg/mL"}, {"measurement": "MIC", "setting": "S. pyogenes [2]; read-out: Initial MIC, strain 2094 Macrolide-R [erm(A)], parent", "value": 0.06, "unit": "µg/mL"}, {"measurement": "MIC", "setting": "S. pyogenes [2]; read-out: Initial MIC, strain 2132 Macrolide-S, parent", "value": 0.06, "unit": "µg/mL"}, {"measurement": "MIC", "setting": "S. pyogenes [2]; read-out: Initial MIC, strain 2368 Macrolide-R [erm(B)], parent", "value": "> 64", "unit": "µg/mL"}, {"measurement": "MIC", "setting": "S. pyogenes [2]; read-out: MIC of parents of resistant clones, S. pyogenes", "value": 0.06, "unit": "µg/mL"}, {"measurement": "MIC", "setting": "S. pyogenes [2]; read-out: Parental MICs, S. pyogenes, 5 strains with varying resistotypes", "value": 0.06, "unit": "µg/mL"}, {"measurement": "MIC", "setting": "S. pyogenes [2]; read-out: Selected Resistance (MIC), strain 237 Macrolide-R [LA mutation], after serial passages in the drug", "value": 0.5, "unit": "µg/mL"}, {"measurement": "MIC", "setting": "S. pyogenes [2]; read-out: Selected Resistance (MIC), strain 2011 Macrolide-R [mef(A)], after serial passages in the drug", "value": 0.06, "unit": "µg/mL"}, {"measurement": "MIC", "setting": "S. pyogenes [2]; read-out: Selected Resistance (MIC), strain 2094 Macrolide-R [erm(A)], after serial passages in the drug", "value": "> 64", "unit": "µg/mL"}, {"measurement": "MIC", "setting": "S. pyogenes [2]; read-out: Selected Resistance (MIC), strain 2132 Macrolide-S, after serial passages in the drug", "value": 0.06, "unit": "µg/mL"}, {"measurement": "days until resistant clones (MIC increase)", "setting": "S. pyogenes [2]; daily passages, max. 50", "value": "34 to 43", "unit": "days"}, {"measurement": "Retest MIC after 10 Antibioticfree Subcultures", "setting": "S. pyogenes [2]; strain 237 Macrolide-R [LA mutation], clone selected with CEM-101", "value": 0.03, "unit": "µg/mL"}, {"measurement": "Retest MIC after 10 Antibioticfree Subcultures", "setting": "S. pyogenes [2]; strain 237 Macrolide-R [LA mutation], clone selected with CLN", "value": 1, "unit": "µg/mL"}, {"measurement": "Retest MIC after 10 Antibioticfree Subcultures", "setting": "S. pyogenes [2]; strain 2011 Macrolide-R [mef(A)], clone selected with AZI", "value": 0.06, "unit": "µg/mL"}, {"measurement": "Retest MIC after 10 Antibioticfree Subcultures", "setting": "S. pyogenes [2]; strain 2094 Macrolide-R [erm(A)], clone selected with AZI", "value": 0.06, "unit": "µg/mL"}, {"measurement": "Retest MIC after 10 Antibioticfree Subcultures", "setting": "S. pyogenes [2]; strain 2094 Macrolide-R [erm(A)], clone selected with CEM-101", "value": 0.06, "unit": "µg/mL"}, {"measurement": "Retest MIC after 10 Antibioticfree Subcultures", "setting": "S. pyogenes [2]; strain 2094 Macrolide-R [erm(A)], clone selected with CLN", "value": ">64", "unit": "µg/mL"}, {"measurement": "Retest MIC after 10 Antibioticfree Subcultures", "setting": "S. pyogenes [2]; strain 2094 Macrolide-R [erm(A)], clone selected with CLR", "value": 0.06, "unit": "µg/mL"}, {"measurement": "Retest MIC after 10 Antibioticfree Subcultures", "setting": "S. pyogenes [2]; strain 2094 Macrolide-R [erm(A)], clone selected with TEL", "value": ">64", "unit": "µg/mL"}, {"measurement": "Retest MIC after 10 Antibioticfree Subcultures", "setting": "S. pyogenes [2]; strain 2132 Macrolide-S, clone selected with AZI", "value": 0.03, "unit": "µg/mL"}, {"measurement": "Retest MIC after 10 Antibioticfree Subcultures", "setting": "S. pyogenes [2]; strain 2368 Macrolide-R [erm(B)], clone selected with CEM-101", "value": ">64", "unit": "µg/mL"}, {"measurement": "Retest MIC after 10 Antibioticfree Subcultures", "setting": "S. pyogenes [2]; strain 2368 Macrolide-R [erm(B)], clone selected with TEL", "value": ">64", "unit": "µg/mL"}, {"measurement": "single step mutation frequency", "setting": "S. pneumoniae [3]; strain 1077 Macrolide-S, 2 × MIC", "value": "<3.8 × 10^−10"}, {"measurement": "single step mutation frequency", "setting": "S. pneumoniae [3]; strain 1077 Macrolide-S, 4 × MIC", "value": "<3.8 × 10^−10"}, {"measurement": "single step mutation frequency", "setting": "S. pneumoniae [3]; strain 1077 Macrolide-S, 8 × MIC", "value": "<3.8 × 10^−10"}, {"measurement": "single step mutation frequency", "setting": "S. pneumoniae [3]; strain 1635 Macrolide-R [erm(A)], 2 × MIC", "value": "7.3 × 10^−7"}, {"measurement": "single step mutation frequency", "setting": "S. pneumoniae [3]; strain 1635 Macrolide-R [erm(A)], 4 × MIC", "value": "5.5 × 10^−7"}, {"measurement": "single step mutation frequency", "setting": "S. pneumoniae [3]; strain 1635 Macrolide-R [erm(A)], 8 × MIC", "value": "5.6 × 10^−7"}, {"measurement": "single step mutation frequency", "setting": "S. pneumoniae [3]; strain 2686 Macrolide-R [L4 mutation], 2 × MIC", "value": "<1.2 × 10^−9"}, {"measurement": "single step mutation frequency", "setting": "S. pneumoniae [3]; strain 2686 Macrolide-R [L4 mutation], 4 × MIC", "value": "<1.2 × 10^−9"}, {"measurement": "single step mutation frequency", "setting": "S. pneumoniae [3]; strain 2686 Macrolide-R [L4 mutation], 8 × MIC", "value": "<1.2 × 10^−9"}, {"measurement": "single step mutation frequency", "setting": "S. pneumoniae [3]; strain 3009 Macrolide-R [23S rRNA mutation], 2 × MIC", "value": "1.7 × 10^−4"}, {"measurement": "single step mutation frequency", "setting": "S. pneumoniae [3]; strain 3009 Macrolide-R [23S rRNA mutation], 4 × MIC", "value": "7.3 × 10^−9"}, {"measurement": "single step mutation frequency", "setting": "S. pneumoniae [3]; strain 3009 Macrolide-R [23S rRNA mutation], 8 × MIC", "value": "<1.2 × 10^−10"}, {"measurement": "single step mutation frequency", "setting": "S. pneumoniae [3]; strain 3665 Macrolide-R [mef(A)], 2 × MIC", "value": "<2.4 × 10^−10"}, {"measurement": "single step mutation frequency", "setting": "S. pneumoniae [3]; strain 3665 Macrolide-R [mef(A)], 4 × MIC", "value": "<2.4 × 10^−10"}, {"measurement": "single step mutation frequency", "setting": "S. pneumoniae [3]; strain 3665 Macrolide-R [mef(A)], 8 × MIC", "value": "<2.4 × 10^−10"}, {"measurement": "single step mutation frequency", "setting": "S. pneumoniae [3]; strain 7127 Macrolide-S [S20N in L4, A105V in L22], 2 × MIC", "value": "<2.9 × 10^−8"}, {"measurement": "single step mutation frequency", "setting": "S. pneumoniae [3]; strain 7127 Macrolide-S [S20N in L4, A105V in L22], 4 × MIC", "value": "<2.9 × 10^−8"}, {"measurement": "single step mutation frequency", "setting": "S. pneumoniae [3]; strain 7127 Macrolide-S [S20N in L4, A105V in L22], 8 × MIC", "value": "<2.9 × 10^−8"}, {"measurement": "single step mutation frequency", "setting": "S. pyogenes [4]; strain 237 Macrolide-R [L4 mutation], 2 × MIC", "value": "<1.0 × 10^−10"}, {"measurement": "single step mutation frequency", "setting": "S. pyogenes [4]; strain 237 Macrolide-R [L4 mutation], 4 × MIC", "value": "<1.0 × 10^−10"}, {"measurement": "single step mutation frequency", "setting": "S. pyogenes [4]; strain 237 Macrolide-R [L4 mutation], 8 × MIC", "value": "<1.0 × 10^−10"}, {"measurement": "single step mutation frequency", "setting": "S. pyogenes [4]; strain 2011 Macrolide-R [mef(A)], 2 × MIC", "value": "<1.0 × 10^−10"}, {"measurement": "single step mutation frequency", "setting": "S. pyogenes [4]; strain 2011 Macrolide-R [mef(A)], 4 × MIC", "value": "<1.0 × 10^−10"}, {"measurement": "single step mutation frequency", "setting": "S. pyogenes [4]; strain 2011 Macrolide-R [mef(A)], 8 × MIC", "value": "<1.0 × 10^−10"}, {"measurement": "single step mutation frequency", "setting": "S. pyogenes [4]; strain 2094 Macrolide-R [erm(A)], 2 × MIC", "value": "2.1 × 10^−7"}, {"measurement": "single step mutation frequency", "setting": "S. pyogenes [4]; strain 2094 Macrolide-R [erm(A)], 4 × MIC", "value": "1.3 × 10^−7"}, {"measurement": "single step mutation frequency", "setting": "S. pyogenes [4]; strain 2094 Macrolide-R [erm(A)], 8 × MIC", "value": "1.1 × 10^−7"}, {"measurement": "single step mutation frequency", "setting": "S. pyogenes [4]; strain 2132 Macrolide-S, 2 × MIC", "value": "<7.7 × 10^−11"}, {"measurement": "single step mutation frequency", "setting": "S. pyogenes [4]; strain 2132 Macrolide-S, 4 × MIC", "value": "<7.7 × 10^−11"}, {"measurement": "single step mutation frequency", "setting": "S. pyogenes [4]; strain 2132 Macrolide-S, 8 × MIC", "value": "<7.7 × 10^−11"}, {"measurement": "MIC Range", "setting": "M. fermentans", "value": "≦0.008-0.063 μg/mL"}, {"measurement": "MIC50", "setting": "M. fermentans; Mycoplasmopsis fermentans", "value": 0.016, "unit": "µg/mL"}, {"measurement": "MIC90", "setting": "M. fermentans; Mycoplasmopsis fermentans", "value": 0.031, "unit": "µg/mL"}]}]}
